Measured values taken from article PMC2646182 (Journal of the American Chemical Society, 2009).
Entries after “also recorded” stand apart in the source; their conditions may differ. Like-named read-outs stand apart in the source and are kept apart here.

How the values were obtained:
L1210 [1] = test: In vitro cytotoxic activity, L1210; type: cell-based; conditions: for IC50: L1210 in vitro cytotoxic activity
w794 DNA = test: DNA alkylation, thermally-induced strand cleavage of w794 DNA; type: biochemical; conditions: 23 °C
[2] = Acid-catalyzed solvolysis at pH 3 monitored by UV; type: physicochemical; conditions: for solvolysis half-life t1/2 / solvolysis rate constant k: pH 3, 50% MeOH–buffer
[3] = pH 3; cited from earlier work
w794 and w836 duplex DNA = test: DNA alkylation of the simple alkylation subunits; type: biochemical; conditions: for DNA alkylation selectivity (sites): both enantiomers
Solvolysis at pH 7 = type: physicochemical
w836 DNA = test: DNA alkylation, thermally-induced strand cleavage of w836 DNA; type: biochemical; conditions: after 24 h
L1210 [4] = conditions: read-out: L1210 IC50; L1210, introduction; cited from earlier work

Compound: COC(=O)c1cc2c([nH]1)C(=O)C=C1N(C(=O)c3cc4cc(OC)c(OC)c(OC)c4[nH]3)CC3CC123 (single isomer, unassigned; (-)) [(−)-1, duocarmycin SA, reference compound]
- IC50 (L1210 [1]): 0.1 nM

Compound: O-benzyl-iso-duocarmycin SA [(−)-34]
- DNA alkylation efficiency relative to duocarmycin SA (1) (w794 DNA; w794, 22 h, 1 × 10^−5 M): nearly equivalent to that of 1
- fold more reactive than N-Boc-iso-DSA (7) ([2]; pH 3 solvolysis): 470 fold
- fold less active than duocarmycin SA (L1210 [1]; L1210): 600 fold
- fold less active than iso-duocarmycin SA (L1210 [1]; L1210): 120 fold
- IC50 (L1210 [1]): 6 nM

Compound: COC(=O)c1cc2c([nH]1)C(=O)C=C1N(C(=O)OC(C)(C)C)CC3CC123 (single isomer, unassigned; (-)) [(−)-8, N-Boc-DSA, reference compound]
- IC50 (L1210 [1]): 60 nM

Compound: COC(=O)c1cc2c([nH]1)[C@@]13C[C@@H]1CN(C(=O)c1cc4cc(OC)c(OC)c(OC)c4[nH]1)C3=CC2=O [(+)-5, iso-duocarmycin SA]
- IC50 (L1210 [1]): 0.05 nM

Compound: COC(=O)c1cc2c([nH]1)C(=O)C=C1N(C(=O)OC(C)(C)C)CC3CC123 (stereo not shown) [Compound 8, N-Boc-DSA, reference compound]
- solvolysis half-life t1/2 [3]: 177 h
- times less efficient DNA alkylation than the full length agents (w794 and w836 duplex DNA): 10^3–10^4 times
- DNA alkylation selectivity (sites) (w794 and w836 duplex DNA): 5′-AA and 5′-TA
- solvolysis at pH 7 (Solvolysis at pH 7): stable

Compound: COC(=O)c1cc2c([nH]1)[C@@]13C[C@@H]1CN(C(=O)OC(C)(C)C)C3=CC2=O [(+)-7, N-Boc-iso-DSA]
- IC50 (L1210 [1]): 33 nM

Compound: O-benzyl-iso-duocarmycin SA [(+)-34]
- IC50 (L1210 [1]): 7 nM

Compound: iso-yatakemycin [(+)-6]
- fold less DNA alkylation than the yatakemycin enantiomers (w836 DNA): 2–5 fold
- IC50 (L1210 [1]): 0.015 nM

Compound: COC(=O)c1cc2c([nH]1)C(=O)C=C1N(C(=O)c3cc4cc(OC)c(OC)c(OC)c4[nH]3)CC3CC123 (single isomer, unassigned; (+)) [(+)-1, duocarmycin SA, reference compound]
- IC50 (L1210 [1]): 0.01 nM

Compound: yatakemycin [Compound 3, reference compound]
- IC50 (L1210 [1]): 0.006 nM
- IC50 (L1210 [4]): 0.003 to 0.006 nM

Compound: COC(=O)c1cc2c([nH]1)[C@@]13C[C@@H]1CN(C(=O)c1cc4cc(OC)c(OC)c(OC)c4[nH]1)C3=CC2=O [(−)-5, iso-duocarmycin SA]
- IC50 (L1210 [1]): 0.55 nM

Compound: COC(=O)c1cc2c([nH]1)C(=O)C=C1N(C(=O)c3cc4cc(OC)c(OC)c(OC)c4[nH]3)CC3CC123 (stereo not shown) [Compound 1, Duocarmycin SA]
- IC50 (L1210 [4]): 0.01 nM

Compound: iso-yatakemycin [(−)-6]
- fold less DNA alkylation than the yatakemycin enantiomers (w836 DNA): 2–5 fold
- fold less potent than the duocarmycin SA / yatakemycin series counterpart (L1210 [1]; L1210): ca. 5 fold
- IC50 (L1210 [1]): 0.03 nM

Compound: O-benzyl-iso-duocarmycin SA [Compound 34]
- solvolysis half-life t1/2 (Solvolysis at pH 7; pH 7, 50% MeOH–H2O): 0.20 h
- solvolysis rate constant k (Solvolysis at pH 7; pH 7, 50% MeOH–H2O): 0.000977 s⁻¹
- solvolysis half-life t1/2 [2]: 0.19 h
- solvolysis rate constant k [2]: 0.001 s⁻¹
- fold more reactive than N-Boc-iso-DSA (7) ([2]; pH 3 solvolysis): 470 fold

Compound: COC(=O)c1cc2c([nH]1)[C@@]13C[C@@H]1CN(C(=O)OC(C)(C)C)C3=CC2=O [Compound 7, N-Boc-iso-DSA]
- times less efficient DNA alkylation than the full length agents (w794 and w836 duplex DNA): 10^3–10^4 times
- DNA alkylation selectivity (sites) (w794 and w836 duplex DNA): 5′-AA and 5′-TA
- solvolysis at pH 7 (Solvolysis at pH 7): no measurable solvolysis; also recorded: stable
- solvolysis half-life t1/2 [2]: 89 h
- solvolysis rate constant k [2]: 2.2e-06 s⁻¹
- fold more reactive than N-Boc-DSA (8) ([2]; pH 3 solvolysis): 2 fold
- fold difference in potency, natural vs unnatural enantiomer (L1210 [1]; L1210): 10 fold
- fold less potent than the duocarmycin SA / yatakemycin series counterpart (L1210 [1]; L1210): 5 fold

Compound: COC(=O)c1cc2c([nH]1)[C@@]13C[C@@H]1CN(C(=O)c1cc4cc(OC)c(OC)c(OC)c4[nH]1)C3=CC2=O [Compound 5, iso-duocarmycin SA]
- DNA alkylation site selectivity vs duocarmycin SA counterpart (w794 DNA; w794, 48 h): alkylated the same site as its duocarmycin SA counterpart
- fold difference in potency, natural vs unnatural enantiomer (L1210 [1]; L1210): 10 fold
- fold less potent than the duocarmycin SA / yatakemycin series counterpart (L1210 [1]; L1210): 5 fold
- IC50 (L1210 [1]): 0.05 nM

Compound: COC(=O)c1cc2c([nH]1)[C@@]13C[C@@H]1CN(C(=O)OC(C)(C)C)C3=CC2=O [(−)-7, N-Boc-iso-DSA]
- IC50 (L1210 [1]): 330 nM

Compound: COC(=O)c1cc2c([nH]1)C(=O)C=C1N(C(=O)OC(C)(C)C)CC3CC123 (single isomer, unassigned; (+)) [(+)-8, N-Boc-DSA, reference compound]
- IC50 (L1210 [1]): 6 nM
